The target of assay [1] is T1, liver arginase (Bos taurus, UniProt Q2KJ64).
T1 sequence (Q2KJ64 1-322): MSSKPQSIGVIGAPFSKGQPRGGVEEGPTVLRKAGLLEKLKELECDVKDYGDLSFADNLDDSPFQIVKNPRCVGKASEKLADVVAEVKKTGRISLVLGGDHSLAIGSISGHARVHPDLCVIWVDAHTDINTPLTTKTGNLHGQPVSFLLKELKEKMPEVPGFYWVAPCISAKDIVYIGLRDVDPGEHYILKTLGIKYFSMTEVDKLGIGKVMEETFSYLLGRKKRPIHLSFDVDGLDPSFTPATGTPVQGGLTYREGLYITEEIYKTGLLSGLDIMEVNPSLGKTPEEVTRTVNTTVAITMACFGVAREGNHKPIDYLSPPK
The note with it: cited from earlier work; for activity toward arginase: concentrations up to 2 mM.

Assay [2] concerns the target IL-13 (murine, endogenous in OVA-challenged Balb/c mice) (mouse) (UniProt P20109). Put plainly: cell-based or functional assay.
Assay [3] concerns the target T2, arginase (Homo sapiens, UniProt P05089).
T2 sequence (P05089 1-322): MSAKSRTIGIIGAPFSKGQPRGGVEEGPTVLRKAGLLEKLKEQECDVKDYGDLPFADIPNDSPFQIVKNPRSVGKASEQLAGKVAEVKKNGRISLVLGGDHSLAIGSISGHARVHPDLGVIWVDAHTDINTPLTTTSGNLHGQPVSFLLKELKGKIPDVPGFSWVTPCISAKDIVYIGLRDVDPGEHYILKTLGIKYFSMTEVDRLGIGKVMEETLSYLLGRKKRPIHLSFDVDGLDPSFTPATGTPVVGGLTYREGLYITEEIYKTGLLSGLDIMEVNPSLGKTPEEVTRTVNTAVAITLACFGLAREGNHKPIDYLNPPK
The following applies: cited from earlier work; for Ki: competitive inhibitors of arginase.

Assay [4] concerns arginase. The note with it: cited from earlier work.
The subject of assay [5] is CAT2. Nature of the assay: arginine uptake in RAW264.7 cells treated with LPS and IL-13. In kind it is cell-based, murine. The note with it: 20 mM lysine; Control and LPS/IL-13 treated RAW264.7 cells; 100 μM arginine, three minutes. As for the experimental part: Briefly, RAW264.7 cells were exposed to media alone (Control) or CAT2-inducing conditions (LPS/IL-13) for 24 hours and were then evaluated for arginine transport over a three-minute period in a final arginine concentration of 100 μM.
RAW264.7 cells, at 1×10^6, were plated on 24-well tissue culture plates in 0.5 ml cDME. After adhering for 2 hours, 0.5 ml media containing LPS (Sigma) and/or rhIL13 (R&D Systems) was added for final concentrations of 1 μg/ml and 10 ng/ml, respectively. After 20 hours incubation at 37° C. in an atmosphere of 5% CO2 and 95% air, the cells were washed 3 times with Arg Wash Buffer #1 (140 mM choline chloride, 5 mM KCl, 0.9 mM CaCl2, 1 mM MgSO4, 5.6 mM glucose, and 25 mM HEPES, pH7.4), then an additional 4 times with Arg Transport Buffer (137 mM choline chloride, 5.4 mM KCl, 1.8 mM CaCl2, 1.2 mM MgSO4, 10 mM HEPES, adjusted to pH7.4). […] Non-saturable binding was quantitated by incubating a replicate well of each treatment with transport buffer containing […]. […] Protein quantitation was performed using a micro-BCA kit (Pierce) and 400 μl lysate suspended in 10 ml scintillation fluid, loaded into glass scintillation vials, and emissions counted for 1 minute. Specific Arginine Uptake was calculated as Saturable binding (CPM/mg protein 400 μM Arg)— Non-saturable binding (CPM/mg protein 5 mM Arg).

In assay [6] the test system is RAW264.7 murine macrophage cells. Nature of the assay: urea production in RAW264.7 cells treated with LPS and IL-13. It is filed as cell-based. The note with it: 20 mM lysine; LPS/IL-13 treated RAW264.7; 400 μM arginine, 24 hour incubation. Here is the method: Briefly, RAW264.7 macrophages exposed to media alone (Control) or CAT2-inducing conditions (LPS/IL-13) for 24 hours were then equilibrated for 2 hours in Arginine Transport Buffer. After a 24 hour incubation in the presence or absence of competing L-lysine in Arginine Transport Buffer containing a final arginine concentration of 400 μM, urea production was evaluated as described in Example 4. Urea production is expressed as μg of urea in the supernatant/mg of cell lysate protein.
RAW264.7 macrophages were stimulated in 24-well plates as for arginine transport studies (above). After 20 hours of stimulation, the cells were washed three times with Arg Wash Buffer #1 and then an additional four times with Arg Transport Buffer. […] Supernatants were clarified by centrifugation at 12,000 rpm for 10 minutes and 100 μl assayed for urea in triplicate using a UV absorbance kit method (R-Biopharma) following the manufacturer's instructions with the exception that it was performed at 1/10 scale in a 96-well assay plate with a total volume of 300 μl/well. Cells were lysed with 500 μl of 1.0% SDS in 10 mM HEPES, pH 7.4 and the protein quantitated using the Micro-BCA kit (Pierce). Urea production was expressed as μg urea/mg protein lysate.

Assay [7] has as its system rat tracheal explants. Nature of the assay: carbachol-induced tracheal contraction. The following applies: 100 mM lysine; preincubated 15 to 20 hours. Here is the method: Briefly, rat tracheal explants were preincubated for 15 to 20 hours with either media or media containing 100 mM L-lysine. The trachea were then washed and contraction measured in a Krebs-Henseleit solution in the presence or absence of 100 mM L-lysine.
Rats between 8-10 weeks of age were used for this experiment. Trachea were rapidly excised and cleaned of adherent connective tissue. […] Composition (mM) of the medium included 0.1 nonessential amino acids, 4% FBS, 2.0 glutamine, 0.05β-mercaptoethanol, 100 U/ml penicillin/100 μg/ml streptomycin.
Trachea were supported longitudinally by a rod with a stainless steel pin into the base of a double-jacketed, glass organ bath filled with 15 ml of Krebs-Henseleit (K-H) solution (37° C.) of the following composition (mM): 118 NaCl; 4.7 KCl; 1.2 KH2PO4; 11.1 Dextrose; 1.2 MgSO4; 2.8 CaCl2; and 25 NaHCO3. The solution was continuously gassed with a 5% CO2 and 95% O2 mixture for the duration of each experiment. The upper support was attached by a loop of silk thread to a TSD125 force transducer. […]
At the end of each experiment, all trachea were blotted on a gauze pad and weighted. Tensions were calculated as milligram tensions per milligram weight (mg/mg) and expressed as an individual percentage (%) of 10^−5 M carbachol-evoked force of the trachea in the absence of the drugs. All values were expressed as Mean ± SE. […]

Assay [8] has as its target arginase. The following applies: cited from earlier work. This is another data set of the same source.
Assay [9] has as its target rat liver arginase (RLA) (Rattus norvegicus, UniProt P07824). The note with it: cited from earlier work; for IC50: read-out: IC50 towards RLA.

Broadly, the Ki is a dissociation constant, usually derived from enzyme kinetics or from competition with a known ligand. The IC50 is the concentration that gives 50% inhibition.

Entries after “also recorded” stand apart in the source; their conditions may differ. Like-named read-outs stand apart in the source and are kept apart here.

Sequence of rat liver arginase (RLA) (P07824 whole entry): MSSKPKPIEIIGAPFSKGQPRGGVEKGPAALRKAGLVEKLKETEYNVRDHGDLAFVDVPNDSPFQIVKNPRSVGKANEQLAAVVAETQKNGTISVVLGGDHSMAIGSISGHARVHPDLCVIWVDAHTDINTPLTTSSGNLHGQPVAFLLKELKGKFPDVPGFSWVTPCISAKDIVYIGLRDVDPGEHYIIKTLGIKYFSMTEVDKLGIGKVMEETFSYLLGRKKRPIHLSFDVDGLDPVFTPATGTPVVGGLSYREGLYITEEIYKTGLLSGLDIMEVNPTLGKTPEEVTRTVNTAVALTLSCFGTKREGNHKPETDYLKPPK
Sequence of IL-13 (murine, endogenous in OVA-challenged Balb/c mice) (mouse) (P20109 19-131 limits assumed): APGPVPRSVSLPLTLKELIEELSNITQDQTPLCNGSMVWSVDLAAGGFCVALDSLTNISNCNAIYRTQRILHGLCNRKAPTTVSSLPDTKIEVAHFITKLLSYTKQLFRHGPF

With `O=[N+]([O-])O` [NO3^−], in assay [1], the “effect on arginase relative to L-NOHA” value is “without effect”. Compound “soluble IL-13 receptor fusion protein sIL-13Rα2-Fc (from UniProt O88786 22-334) (Fc fusion)” had an inhibition of allergen-induced Arg1 mRNA expression in mouse lung (GeneChip, in vivo) in assay [2] of 67%. With `NCCC[C@H](N)C(=O)O` [L-omithine, L-ornithine], in assay [3], the Ki is 2000 µM. In the case of `N=C(NO)c1ccc(CC(N)C(=O)O)cc1` (racemic) [4-hydroxyamidino-D,L-phenylalanine], the “inhibition of liver arginase and arginase in the alveolar macrophages” value in [4] is “inhibit”. As to `N=C(NO)NCCC[C@@H](N)C(=O)O` [D-NOHA], the “effect on arginase relative to L-NOHA” value in assay [1] is listed as “much less active”.

On to `NC(CCCCC(N)C(=O)O)=NO` (racemic) [N omega-hydroxy-D,L-indospicine], for which, in assay [4], the “inhibition of liver arginase and arginase in the alveolar macrophages” value is listed as “inhibit”.

Regarding `NO` [hydroxylamine], in assay [1], the activity toward arginase entry is “inactive”. `NC(N)=O` [urea]: in assay [1], the activity toward arginase entry was “inactive”. Take `O=NO` [NO2^−]: the “effect on arginase relative to L-NOHA” value in assay [1] is listed as “without effect”. With `[N]=O` [NO, nitric oxide], in assay [1], the “effect on arginase relative to L-NOHA” value was “much weaker inhibitors”. Consider `NCCCC[C@H](N)C(=O)O` [lysine], for which, in assay [5], the “arginine uptake / saturable arginine transport” value is on record as “inhibited; also recorded: abolished all saturable arginine transport”. Further, the urea production entry in assay [6] is “inhibited”. Besides, the “carbachol-induced rat tracheal contraction” value in assay [7] is given as “inhibited”.

As to `N=C(NO)NCCC[C@H](N)C(=O)O` [L-NOHA, N(omega)-Hydroxy-L-arginine], the Ki in assay [1] (arginase) is 150 µM. Further, the IC50 in assay [8] (murine macrophages (Buga et al.), read-out: IC50 arginase activity) was 450 µM; in assay [8] (read-out: IC50 hydrolysis of L-arginine to L-ornithine, unstimulated murine macrophages (Tenu et al.)) it was 400 µM. `F` [F^−, fluoride]: the Ki in assay [9] (pH 7.4, uncompetitive towards L-Arg binding, reversible) was 1300 µM. Moreover, the IC50 was 1200 µM in [9] (pH 7) and 19000 µM in [9] (pH 10).

For the compound `NC(=O)NO` [hydroxyurea], the activity toward arginase entry in assay [1] was “inactive”. As to `O=C(O)CN(CCN(CC(=O)O)CC(=O)O)CC(=O)O` [EDTA], the “inhibition of arginase activity” value in assay [3] is given as “do not inhibit”. `NC(=O)NCCC[C@H](N)C(=O)O` [L-Cit]: in assay [1], the “effect on arginase relative to L-NOHA” value is on record as “much weaker inhibitors” and the activity toward arginase entry is “inactive”. Consider `OB(O)O` [borate], for which the “inhibition of arginase activity” value in assay [3] is on record as “S-hyperbolic I-hyperbolic non-competitive inhibitor”. For the compound `N=C(N)N` [guanidinium chloride], the Ki in assay [3] is 100000 µM. With `O=C(O)CC(O)(CC(=O)O)C(=O)O` [citrate], the “inhibition of arginase activity” value in assay [3] was “do not inhibit”.

These data come from patent US20040234517A1, “Compositions and methods for diagnosing and treating asthma or other allergic or inflammatory diseases” (WYETH, priority 2003, published 2004).
